Measurements as given in US10167262B2, “Herbicidal substituted 3-arylpyrazoles” (FMC CORPORATION, priority 2014, dated 2019).
Where two headings read alike, the source gives them in different places.

Assays:
Format in all cases: in vivo
[1] = tested on: lambsquarters (Chenopodium album); test: Test C pre-/postemergence greenhouse test, plant response rating 0-100; conditions: Chenopodium album, pre-emergence, Preemergence
Method in brief: (§1)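 Pre- and postemergence greenhouse test: seeds sown in loam/sand and treated preemergence, or plants at 2–18 cm (1- to 4-leaf stage) in peat-based medium sprayed postemergence, with compounds in non-phytotoxic solvent plus surfactant. Visual rating versus untreated controls after 13–15 days, 0 (no effect) to 100 (complete control).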

[2] = tested on: pigweed (Amaranthus retroflexus); test: as above; conditions: Amaranthus retroflexus; for pest or weed control at 62 g/ha: 62 g ai/ha; for pest or weed control at 125 g/ha: 125 g ai/ha; for pest or weed control at 250 g/ha: 250 g ai/ha
Method in brief: as §1

[3] = tested on: soybean (Glycine max); test: as above; conditions: Glycine max; for plant injury at 62 g/ha: 62 g ai/ha; for plant injury at 125 g/ha: 125 g ai/ha; for plant injury at 250 g/ha: 250 g ai/ha
Method in brief: as §1

[4] = tested on: winter wheat (Triticum aestivum); test: as above; conditions: Triticum aestivum; for plant injury at 62 g/ha: 62 g ai/ha; for plant injury at 125 g/ha: 125 g ai/ha; for plant injury at 250 g/ha: 250 g ai/ha
Method in brief: as §1

[5] = tested on: yellow nutsedge (Cyperus esculentus); test: as above; conditions: Cyperus; for pest or weed control at 62 g/ha: 62 g ai/ha; for pest or weed control at 125 g/ha: 125 g ai/ha; for pest or weed control at 250 g/ha: 250 g ai/ha
Method in brief: as §1

[6] = tested on: chickweed (common chickweed, Stellaria media); test: Test C postemergence greenhouse test, plant response rating 0-100; conditions: Stellaria media, post-emergence
Method in brief: (§2)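 Each weed species was grown in potting medium and sprayed after emergence, when 2–18 cm tall. Ratings, made by eye relative to control pots, were recorded 13–15 days later using a scale where 0 is no effect.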

[7] = tested on: kochia (Kochia scoparia); test: as above; conditions: Bassia scoparia, post-emergence
Method in brief: as §2

[8] = tested on: wild oat (Avena fatua); test: as above; conditions: Avena fatua, post-emergence
Method in brief: as §2

[9] = post-emergence, Postemergence, read-out: Plant response rating (0 to 100), Pigweed
[10] = post-emergence, Postemergence, scale 0 to 100
[11] = post-emergence, Postemergence, 500 g ai/ha, scale 0 to 100
[12] = pre-emergence, Preemergence, 31 g ai/ha
[13] = pre-emergence, Preemergence, read-out: Plant response rating, Pigweed
[14] = post-emergence, Postemergence, read-out: Plant response rating (0 to 100), Soybean
[15] = pre-emergence, Preemergence, read-out: Plant response rating, Soybean
[16] = post-emergence, Postemergence, read-out: Plant response rating (0 to 100), Wheat
[17] = pre-emergence, Preemergence, read-out: Plant response rating, Wheat
[18] = post-emergence, Postemergence, read-out: Plant response rating (0 to 100), Nutsedge, Yellow
[19] = pre-emergence, Preemergence, read-out: Plant response rating, Nutsedge, Yellow

O=C(c1ccccc1)c1cn(CO)nc1-c1cc(Cl)cc(Cl)c1 [Compound 15, [3-(3,5-dichlorophenyl)-1-(hydroxymethyl)-1H-pyrazol-4-yl]phenylmethanone]
95%: pest or weed control at 62 g/ha ([6]; 62 g ai/ha) | pest or weed control at 125 g/ha ([6]; 125 g ai/ha)
5%: plant injury at 500 g/ha [3, 11]
0%: plant injury at 62 g/ha [3, 14] | plant injury at 125 g/ha [3, 14] | plant injury at 250 g/ha [3, 10] | plant injury at 62 g/ha [3, 15] | plant injury at 125 g/ha [3, 15] | plant injury at 250 g/ha ([3]; pre-emergence, Preemergence) | plant injury at 62 g/ha [4, 16] | plant injury at 125 g/ha [4, 16] | plant injury at 250 g/ha [4, 10] | plant injury at 500 g/ha [4, 11] | plant injury at 62 g/ha [4, 17] | plant injury at 125 g/ha [4, 17] | plant injury at 250 g/ha ([4]; pre-emergence, Preemergence) | pest or weed control at 62 g/ha [5, 18] | pest or weed control at 125 g/ha [5, 18] | pest or weed control at 250 g/ha [5, 10] | pest or weed control at 500 g/ha [5, 11] | pest or weed control at 31 g/ha [5, 12] | pest or weed control at 62 g/ha [5, 19] | pest or weed control at 125 g/ha [5, 19] | pest or weed control at 250 g/ha ([5]; pre-emergence, Preemergence) | pest or weed control at 62 g/ha ([8]; 62 g ai/ha) | pest or weed control at 125 g/ha ([8]; 125 g ai/ha) | pest or weed control at 250 g/ha ([8]; 250 g ai/ha, scale 0 to 100) | pest or weed control at 500 g/ha ([8]; 500 g ai/ha, scale 0 to 100)
90%: pest or weed control at 62 g/ha [2, 9] | pest or weed control at 500 g/ha ([7]; 500 g ai/ha, scale 0 to 100)
100%: pest or weed control at 62 g/ha ([1]; 62 g ai/ha, read-out: Plant response rating, Lambsquarters) | pest or weed control at 125 g/ha ([1]; 125 g ai/ha, read-out: Plant response rating, Lambsquarters) | pest or weed control at 250 g/ha ([1]; 250 g ai/ha) | pest or weed control at 125 g/ha [2, 9] | pest or weed control at 250 g/ha [2, 10] | pest or weed control at 500 g/ha [2, 11] | pest or weed control at 31 g/ha [2, 12] | pest or weed control at 62 g/ha [2, 13] | pest or weed control at 125 g/ha [2, 13] | pest or weed control at 250 g/ha ([2]; pre-emergence, Preemergence) | pest or weed control at 250 g/ha ([6]; 250 g ai/ha, scale 0 to 100) | pest or weed control at 500 g/ha ([6]; 500 g ai/ha, scale 0 to 100)
70%: pest or weed control at 62 g/ha ([7]; 62 g ai/ha)
85%: pest or weed control at 125 g/ha ([7]; 125 g ai/ha) | pest or weed control at 250 g/ha ([7]; 250 g ai/ha, scale 0 to 100)
